Test results published in ChEMBL document CHEMBL5390215, “SARS-CoV-2 papain-like protease (PLpro) inhibitory and antiviral activity of small molecule derivatives for drug leads” (Bioorg Med Chem Lett, 2023).

Tests used:
[1] = test system: SARS-CoV-2; experiment: Antiviral activity against SARS-CoV-2 infected Chlorocebus sabaeus Vero E6 cells assessed as inhibition of viral replication; format: functional; conditions: Severe acute respiratory syndrome coronavirus 2, Vero C1008; read-out: ID50 (the source's name)
[2] = biological target: Replicase polyprotein 1ab (Severe acute respiratory syndrome-related coronavirus, UniProt P0C6X7); experiment: Inhibition of SARS-CoV-1 papain-like protease
[3] = biological target: Replicase polyprotein 1ab (Severe acute respiratory syndrome coronavirus 2, UniProt P0DTD1); experiment: Inhibition of SARS-CoV-2 papain-like protease
[4] = test system: SARS-CoV; experiment: Antiviral activity against SARS-CoV-1 infected Chlorocebus sabaeus Vero E6 cells assessed as inhibition of viral replication; format: functional; conditions: Severe acute respiratory syndrome-related coronavirus, Vero C1008; read-out: ID50 (the source's name)

Structure (SMILES) | IC50 [1] [µM] | IC50 [2] [µM] | IC50 [3] [µM] | IC50 [4] [µM]
COc1cccc(CNC(=O)C2CCN([C@H](C)c3ccc4ccccc4c3)CC2)c1 | 27 | 13.2 | – | –
C[C@@H](NC(=O)[C@@H](Cc1ccccc1)NC(=O)OC(C)(C)C)c1cccc2ccccc12 | 38 | – | > 100 | –
C[C@@H](NS(=O)(=O)c1cccc(N)c1)c1cccc2ccccc12 | 64 | – | – | –
CNCc1ccc(C)c(C(=O)N[C@H](C)c2cccc3ccccc23)c1 | 20 | – | – | –
Cc1ccc(CN)cc1C(=O)N[C@H](C)c1cccc2ccccc12 | 24 | – | – | –
C[C@@H](NC(=O)[C@@H](NC(=O)OC(C)(C)C)c1ccccc1)c1cccc2ccccc12 | > 100 | – | 13.2 | –
C[C@@H](NC(=O)[C@H](N)Cc1c[nH]c2ccccc12)c1cccc2ccccc12 | 31 | – | > 100 | –
CCCN(CCC)C(=O)c1cccc(C(=O)N[C@H](C)c2cccc3ccccc23)c1 | 15 | – | 15.9 | –
C[C@@H](NS(=O)(=O)c1cccc([N+](=O)[O-])c1)c1cccc2ccccc12 | 38 | – | 15.5 | –
C[C@@H](NC(=O)[C@H](NC(=O)OC(C)(C)C)c1ccccc1)c1cccc2ccccc12 | > 100 | – | 13.3 | –
COc1ccc(C(=O)N[C@H](C)c2cccc3ccccc23)cc1N | > 100 | – | 35.2 | –
COc1ccc([C@@H](C)NC(=O)c2cc(N)ccc2C)c2ccccc12 | 36 | – | > 100 | –
CCCN(CCC)C(=O)c1ccc(C)c(C(=O)N[C@H](C)c2cccc3ccccc23)c1 | > 100 | – | > 100 | –
Cc1ccc(C(=O)NC(C)C)cc1C(=O)N[C@H](C)c1cccc2ccccc12 | > 100 | – | > 100 | –
C[C@@H](NS(=O)(=O)c1ccc([N+](=O)[O-])cc1)c1cccc2ccccc12 | 56 | – | 6.3 | –
COc1ccc(CNC(=O)C2CCN([C@H](C)c3cccc4ccccc34)CC2)cc1 | 17 | 0.56 | 0.92 | 10.2
C[C@@H](NS(=O)(=O)c1ccc(N)cc1)c1cccc2ccccc12 | > 100 | – | > 100 | –
C[C@@H](NC(=O)[C@@H](Cc1c[nH]c2ccccc12)NC(=O)OC(C)(C)C)c1cccc2ccccc12 | 36 | – | > 100 | –
Cc1ccc(N)cc1C(=O)N[C@H](C)c1cccc2ccccc12 | 38 | – | – | –
C[C@@H](NC(=O)[C@H](N)Cc1ccccc1)c1cccc2ccccc12 | 76 | – | > 100 | –
